Experimental data reported in PubChem BioAssay AID449762 (Southern Research Specialized Biocontainment Screening …, 2010).
Records with an inconclusive call do not appear.

Test system: M. tuberculosis H37Rv growth inhibition, 7H9 media
Experiment: M. tuberculosis growth inhibition, HTS (AID 449762);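 further: bacterial growth assessed after seven days of incubation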
Conditions: for IC90: measured here: IC90 growth inhibition

SMILES	IC50 [µM]	IC90 [µM]
CCC(C)NC(=O)c1c(N)n(/N=C/c2ccccn2)c2nc3ccccc3nc12 (stereo unspecified)	9.73	14.3
COc1ccccc1C(CNC(=O)C(C)(C)Oc1ccc(Cl)cc1)N1CCCC1 (stereo unspecified)	23.5	26.5
CCCCC(O)(CCCC)C(=O)NN(C(=O)CCl)c1ccccc1	3.9	10.5
COc1ccc(COc2cc(-c3cccc(OC)c3)nc3ccc(NC(=O)c4ccc(OC)cc4)cc23)cc1	5.42	> 100
CC1(C)Cc2c(sc(NC(=O)c3ccc(C(=O)c4ccccc4)cc3)c2C(N)=O)C(C)(C)N1	22.5	> 100
O=C(Nc1ccc(N2CCN(C(=O)c3ccco3)CC2)cc1)C(c1ccccc1)c1ccccc1	12.1	22.6
CSc1ncc(C(=O)Nc2ccc(Br)cn2)c(C)n1	0.93	3.9
O=C(CSc1ccccn1)Nc1nonc1[N+](=O)[O-]	1.45	2.25
NC(=O)c1cccn1-c1ncc(C(F)(F)F)cc1Cl	6.8	16.6
CC(=O)Oc1ccc(/C=N\NC(=O)c2cc3c(ccc4ccccc43)o2)cc1	58.5	> 100
COC(=O)[C@H](CC(C)C)NC(=O)c1cc2c(cn1)[nH]c1ccccc12	8.55	29.2
Cc1cc([N+](=O)[O-])c2ccccc2[n+]1[O-]	5.76	9.62
Cc1ccnc(Sc2ccc([N+](=O)[O-])cc2[N+](=O)[O-])n1	7.7	15.1
CC(C)(C)CC(C)(C)c1ccc(OCCOCC[N+](C)(C)Cc2ccccc2)cc1	26.2	30
COc1ccc(C(C[N+](=O)[O-])c2c(-c3ccccc3)cc3ccccn23)c(OC)c1 (stereo unspecified)	14.9	38.6
CCCCn1c(=O)c(C(=O)Nc2ncccc2C)c(O)c2ccccc21	10.3	15.8
CN(C(=O)COC(=O)c1sc2ccccc2c1Cl)C1CCCCC1	4.8	15
COc1ccc(-c2cc(C3CCN(Cc4cccc(C(F)(F)F)c4)CC3)[nH]n2)cc1	10.6	15.9
Clc1cc(Cl)cc(Nc2ncn[nH]2)c1	24.1	> 100
COc1ccc(Cl)cc1C(=O)O/N=C(\N)c1ccccn1	25.4	> 100
CCCC(NCC(O)COc1ccc(-c2ccccc2)cc1)c1ccccc1 (stereo unspecified)	11.5	14.9
FC(F)(F)c1ccc(Nc2nnnc3ccccc23)cc1	90.2	99.6

SMILES	IC50 [µM]	IC90 [µM]
COC(=O)c1ccc2c(c1O)C(=O)c1ccccc1C2=O	65.4	77.9
Cc1ccc(C(=O)N/N=C(/CC(=O)c2cccs2)C(F)(F)F)cc1	2.97	3.28
COc1cc(NC(=O)C/C(C)=N/NC(=O)c2ccccn2)c(OC)cc1Cl	3	4.13
Cn1c(CNc2nc(-c3ccccc3)cs2)nnc1SCC(=O)OC1CCCCC1	11.6	24.2
Cc1ccc(C(=O)C[n+]2cc(-c3ccc(C)cc3)n3c2CCCCC3)cc1	15.3	19.8
O=c1c(Cl)c2oc3ccccc3nc-2c2ccccc12	9.38	11.9
CCn1c(C)nc2cc(C(=O)OC(C(F)(F)C(F)F)C(F)(F)C(F)F)ccc21	17.8	26.1
CC(OC(=O)c1cc(Cl)ccc1[N+](=O)[O-])C(=O)NC(C)c1ccc(F)cc1 (stereo unspecified)	22.8	26
CNC[C@@H](Cc1ccccc1)NC[C@@H](CC1CCCCC1)NCCCc1ccccc1	7.96	9.49
O=[N+]([O-])c1ccc(CN2CCN(c3ccc(Cl)cc3)CC2)o1	< 0.2	< 0.2
CCOC(=O)CCCc1ccc(/C(C)=N/NC(N)=S)cc1	6.5	14.7
CCOc1cc(/C=N/Nc2nc(Nc3ccccc3)nc(N3CCCCC3)n2)ccc1OCC(=O)O	7.04	23.4
CCCCOCCCn1c(-c2ccco2)nc2nc3ccccc3nc21	94.9	> 100
Oc1ccccc1/C=N/NC(=S)NC1CC2CC1C1C=CCC21 (stereo unspecified)	11.1	12.3
Cc1nc(N)nc(N)c1CCCc1ccc(Cl)c(Cl)c1	78.2	> 100
CC(C)(O)[C@H]1O[C@H]2CC[C@@]3(C)[C@@](O)(CC[C@H]4Cc5c([nH]c6ccccc56)[C@@]43C)C2=CC1=O	42.2	63.9
C(=N\Nc1nc(-c2ccccc2)cs1)/c1ccncc1	47.3	66.4
CCOC(=O)/C(=N/Nc1ccccc1)c1csc(Nc2ccccc2)n1	34.6	> 100
CC(=O)OCC1O[C@@H](O[C@@H]2C[C@H]3C(C)(C)[C@H](OC(C)=O)CC[C@]3(C)[C@H]3CC[C@]45C[C@]4(CC[C@H]5[C@@H](C)C[C@@H](O)[C@H](O)C(C)(C)O)[C@@]32C)[C@H](O)[C@@H](O)[C@@H]1O (stereo partly specified)	30.7	39.6
O=c1c(-c2cnn(-c3ccccc3)c2)coc2cc(O)ccc12	12.1	> 100
O=C1Nc2cc(C(=O)NCCCN3CCOCC3)ccc2S/C1=C/c1cccc(Cl)c1	26.3	41
